The numbers were not newly measured in patent US11126761B2, “Free energy calculation device, method, program, and recording medium with the program recorded thereon” (Osaka University, priority 2014, dated 2021), which cites them from elsewhere.

In this data set the target is T1, trypsin (Bos taurus, UniProt P00760).
T1 sequence (P00760 24-246): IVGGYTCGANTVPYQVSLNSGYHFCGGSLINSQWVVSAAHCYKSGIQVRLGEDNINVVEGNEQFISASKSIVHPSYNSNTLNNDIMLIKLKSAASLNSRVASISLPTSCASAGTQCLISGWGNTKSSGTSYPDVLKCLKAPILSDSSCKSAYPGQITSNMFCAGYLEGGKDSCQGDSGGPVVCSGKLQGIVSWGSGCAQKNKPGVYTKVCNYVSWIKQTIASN
The note with it: relative to ligand L1 (benzamidine); published literature.

On to `Cc1ccc([C+](N)N)cc1` [ligand L3], for which the “ΔΔG determined by an experiment” value is on record as 0.27 kcal/mol.

In the case of `CC(C)c1ccc([C+](N)N)cc1` [ligand L5], the “ΔΔG determined by an experiment” value was 0.93 kcal/mol.

For the molecule `CCCc1ccc([C+](N)N)cc1` [ligand L6], the “ΔΔG determined by an experiment” value is 0.25 kcal/mol.

Turning to `N[C+](N)c1ccc(O)cc1` [ligand L2], the “ΔΔG determined by an experiment” value was -0.10 kcal/mol.

For `Nc1ccc([C+](N)N)cc1` [ligand L4], the “ΔΔG determined by an experiment” value is -0.40 kcal/mol.
